Literature values as cited in patent US20260144771A1, “Use of Triheptanoin Oil for Primary-Specific Pyruvate Dehydrogenase Complex (PDC) Deficiency” (University of Pittsburgh - Of the Commonwealth System of …, priority 2022, published 2026).

Legend:
[1] = subjects with other mitochondrial disorders such as MELAS
[2] = human, in vivo
PDC = PDC (Homo sapiens, UniProt P10515); details: read-out: Ki for end-product inhibition of PDC
[3] = a case of pyruvate carboxylase deficiency
[4] = test system: PDC and 2-oxoglutarate dehydrogenase activities; details: chronic epilepsy mouse model
[5] = subjects with FAO disorders

SMILES: O=C(O)C(Cl)Cl [DCA, dichloroacetate]
- neuropathy [1]: associated with toxic neuropathy

SMILES: Cc1ncc(C[n+]2csc(CCO)c2C)c(N)n1 [Thiamine, thiamine]
- adverse side-effects [2]: has not been reported to have adverse side-effects

SMILES: CC(=O)SCCNC(=O)CCNC(=O)[C@H](O)C(C)(C)COP(=O)(O)OP(=O)(O)OC[C@H]1O[C@@H](n2cnc3c(N)ncnc32)[C@H](O)[C@@H]1OP(=O)(O)O [acetyl-CoA]
- Ki (PDC): 5 to 10 µM

SMILES: CCC(=O)SCCNC(=O)CCNC(=O)[C@H](O)C(C)(C)COP(=O)(O)OP(=O)(O)OC[C@H]1O[C@@H](n2cnc3c(N)ncnc32)[C@H](O)[C@@H]1OP(=O)(O)O [propionyl-CoA]
- Ki (PDC): 3000 to 4000 µM

SMILES: CCCCCCC(=O)OCC(COC(=O)CCCCCC)OC(=O)CCCCCC [triheptanoin]
- biochemical outcomes [3]: rapid and significant improvement of biochemical outcomes
- effect on PDC and 2-oxoglutarate dehydrogenase activities [4]: prevented reduction
- incorporation of 13C derived from 13C-glucose in TCA cycle intermediates [4]: partially corrected the reduced incorporation
- biochemical and physical outcomes before and after treatment [5]: significant improvement in cardiomyopathy and decreased frequency and severity of rhabdomyolysis
- most commonly reported side effect: GI distress, share of cases: ≥ 10 % of cases
